Where two headings read alike, the source gives them in different places.
Legend:
Format in all cases: in vivo
Spodoptera littoralis = Spodoptera littoralis (Egyptian cotton leaf worm) leaf disc test; details: foliar, 72 h, read-out: control (at least one of mortality, anti-feedant effect, growth inhibition); for percent control (mortality, anti-feedant effect or growth inhibition) at 200 ppm: application rate 200 ppm, cotton leaf discs sprayed, L1 larvae, 3 days after infestation
Protocol: Spodoptera littoralis (Egyptian Cotton Leaf Worm)
Cotton leaf discs were placed on agar in 24-well microtiter plates and sprayed with aqueous test solutions prepared from 10′000 ppm DMSO stock solutions. After drying the leaf discs were infested with five L1 larvae. The samples were assessed for mortality, anti-feedant effect, and growth inhibition in comparison to untreated samples 3 days after infestation. Control of Spodoptera littoralis by a test sample is when at least one of mortality, anti-feedant effect, and growth inhibition is higher than the untreated sample.

Plutella xylostella = Plutella xylostella (diamond back moth) artificial diet test; details: 120 h, read-out: control (mortality and growth inhibition)
Protocol: Plutella xylostella (Diamond Back Moth):
(§1) 24-well microtiter plates with artificial diet were treated with aqueous test solutions prepared from 10′000 ppm DMSO stock solutions by pipetting. After drying, the plates were infested with L2 larvae (10 to 15 per well). The samples were assessed for mortality and growth inhibition in comparison to untreated samples 5 days after infestation.

Diabrotica Balteata = assay: Diabrotica balteata (corn root worm) maize sprout test; details: 96 h, read-out: control (mortality and growth inhibition)
Protocol: Diabrotica Balteata, (Corn Root Worm)
as §1, with “Maize sprouts, placed on an agar layer in 24-well” for “24-well”, “plates” for “plates with artificial diet”, “spraying.” for “pipetting.”, “(6” for “(10”, “10” for “15”, “4” for “5”

Tetranychus urticae = Tetranychus urticae (two-spotted spider mite) leaf disc test; details: foliar, 192 h, application rate 200 ppm, bean leaf discs sprayed, 8 days after infestation, read-out: control (mortality on mixed population, mobile stages)
Protocol: Tetranychus urticae (Two-Spotted Spider Mite):
Bean leaf discs on agar in 24-well microtiter plates were sprayed with aqueous test solutions prepared from 10′000 ppm DMSO stock solutions. After drying the leaf discs were infested with a mite population of mixed ages. The samples were assessed for mortality on mixed population (mobile stages) 8 days after infestation.

Thrips tabaci = Thrips tabaci (onion thrips) leaf disc test; details: foliar, 144 h, read-out: control (mortality)
Protocol: Thrips tabaci (Onion Thrips):
Sunflower leaf discs were placed on agar in 24-well microtiter plates and sprayed with aqueous test solutions prepared from 10′000 ppm DMSO stock solutions. After drying the leaf discs were infested with a thrips population of mixed ages. The samples were assessed for mortality 6 days after infestation.

[1] = application rate 200 ppm, artificial diet, L2 larvae, 5 days after infestation
[2] = application rate 200 ppm, maize sprouts sprayed, L2 larvae, 4 days after infestation
[3] = application rate 200 ppm, sunflower leaf discs sprayed, mixed ages, 6 days after infestation

Cn1nc(OS(=O)(=O)C(F)(C(F)(F)F)C(F)(F)F)c(C(F)(F)F)c1-n1cc(-c2ccc(Cl)c(C(=O)N(/C(F)=C(\F)C(F)(F)F)C3(C#N)CC3)c2)cn1 [Compound 58, [5-[4-[4-chloro-3-[(1-cyanocyclopropyl)-[(E)-1,2,3,3,3-pentafluoroprop-1-enyl]carbamoyl]phenyl]pyrazol-1-yl]-1-methyl-4-(trifluoromethyl)pyrazol-3-yl] 1,1,1,2,3,3,3-heptafluoropropane-2-sulfonate]
≥ 80%: percent control (mortality, anti-feedant effect or growth inhibition) at 200 ppm (Spodoptera littoralis) | mortality at 200 ppm (Plutella xylostella; [1]) | mortality at 200 ppm (Diabrotica Balteata; [2]) | mortality at 200 ppm (Tetranychus urticae)

Cn1nc(OS(=O)(=O)C(F)(F)C(F)(F)C(F)(F)C(F)(F)F)c(C(F)(F)F)c1-n1cc(-c2cnc(Cl)c(C(=O)NC3(C#N)CC3)c2)cn1 [Compound 30, [5-[4-[6-chloro-5-[(1-cyanocyclopropyl)carbamoyl]-3-pyridyl]pyrazol-1-yl]-1-methyl-4-(trifluoromethyl)pyrazol-3-yl] 1,1,2,2,3,3,4,4,4-nonafluorobutane-1-sulfonate]
≥ 80%: percent control (mortality, anti-feedant effect or growth inhibition) at 200 ppm (Spodoptera littoralis) | mortality at 200 ppm (Plutella xylostella) | mortality at 200 ppm (Diabrotica Balteata)

Cn1nc(OS(=O)(=O)C(F)(C(F)(F)F)C(F)(F)F)c(C(F)(F)F)c1-n1cc(-c2ccc(Cl)c(C(N)=O)c2)cn1 [Compound 67, [5-[4-(3-carbamoyl-4-chloro-phenyl)pyrazol-1-yl]-1-methyl-4-(trifluoromethyl)pyrazol-3-yl] 1,1,1,2,3,3,3-heptafluoropropane-2-sulfonate]
≥ 80%: percent control (mortality, anti-feedant effect or growth inhibition) at 200 ppm (Spodoptera littoralis) | mortality at 200 ppm (Plutella xylostella; [1]) | mortality at 200 ppm (Tetranychus urticae)

Cn1nc(OS(=O)(=O)C(F)(F)C(F)(F)C(F)(F)C(F)(F)F)c(C(F)(F)F)c1-c1cc(-c2ccc(Cl)c(C(=O)NC3CC3)c2)on1 [Compound 39, [5-[5-[4-chloro-3-(cyclopropylcarbamoyl)phenyl]isoxazol-3-yl]-1-methyl-4-(trifluoromethyl)pyrazol-3-yl] 1,1,2,2,3,3,4,4,4-nonafluorobutane-1-sulfonate]
≥ 80%: mortality at 200 ppm (Plutella xylostella) | mortality at 200 ppm (Diabrotica Balteata)

CN(C(=O)c1cc(-c2cnn(-c3c(C(F)(F)F)c(OS(=O)(=O)C(F)(F)C(F)(F)F)nn3C)c2)ccc1Cl)C1(C#N)CC1 [Compound 7, [5-[4-[4-chloro-3-[(1-cyanocyclopropyl)-methyl-carbamoyl]phenyl]pyrazol-1-yl]-1-methyl-4-(trifluoromethyl)pyrazol-3-yl] 1,1,2,2,2-pentafluoroethanesulfonate]
≥ 80%: percent control (mortality, anti-feedant effect or growth inhibition) at 200 ppm (Spodoptera littoralis) | mortality at 200 ppm (Plutella xylostella; [1]) | mortality at 200 ppm (Diabrotica Balteata; [2]) | mortality at 200 ppm (Thrips tabaci; [3])

Cn1nc(OS(=O)(=O)C(F)(F)C(F)(F)F)c(C(F)(F)F)c1-n1cc(-c2ccc(Cl)c(C(=O)NC3CC3)c2)cn1 [Compound 20, [5-[4-[4-chloro-3-(cyclopropylcarbamoyl)phenyl]pyrazol-1-yl]-1-methyl-4-(trifluoromethyl)pyrazol-3-yl] 1,1,2,2,2-pentafluoroethanesulfonate]
≥ 80%: percent control (mortality, anti-feedant effect or growth inhibition) at 200 ppm (Spodoptera littoralis) | mortality at 200 ppm (Plutella xylostella; [1]) | mortality at 200 ppm (Diabrotica Balteata; [2]) | mortality at 200 ppm (Thrips tabaci; [3]) | mortality at 200 ppm (Tetranychus urticae)

CCN(C(=O)c1cc(-c2cc(-c3c(C(F)(F)F)c(OS(=O)(=O)C(F)(F)C(F)(F)C(F)(F)C(F)(F)F)nn3C)no2)ccc1Cl)C1(C#N)CC1 [Compound 44, [5-[5-[4-chloro-3-[(1-cyanocyclopropyl)-ethyl-carbamoyl]phenyl]isoxazol-3-yl]-1-methyl-4-(trifluoromethyl)pyrazol-3-yl] 1,1,2,2,3,3,4,4,4-nonafluorobutane-1-sulfonate]
≥ 80%: percent control (mortality, anti-feedant effect or growth inhibition) at 200 ppm (Spodoptera littoralis) | mortality at 200 ppm (Plutella xylostella)

Cn1nc(OS(=O)(=O)F)c(C(F)(F)F)c1-n1cc(-c2ccc(Cl)c(C(=O)NC3CC3)c2)cn1 [Compound 4, 5-[4-[4-chloro-3-(cyclopropylcarbamoyl)phenyl]pyrazol-1-yl]-3-fluorosulfonyloxy-1-methyl-4-(trifluoromethyl)pyrazole]
≥ 80%: mortality at 200 ppm (Spodoptera littoralis)

CN(C(=O)c1cc(-c2cnn(-c3c(C(F)(F)F)c(OS(=O)(=O)C(F)(F)C(F)(F)C(F)(F)C(F)(F)F)nn3C)c2)cnc1Cl)C1CC1 [Compound 28, [5-[4-[6-chloro-5-[cyclopropyl(methyl)carbamoyl]-3-pyridyl]pyrazol-1-yl]-1-methyl-4-(trifluoromethyl)pyrazol-3-yl] 1,1,2,2,3,3,4,4,4-nonafluorobutane-1-sulfonate]
≥ 80%: percent control (mortality, anti-feedant effect or growth inhibition) at 200 ppm (Spodoptera littoralis) | mortality at 200 ppm (Plutella xylostella) | mortality at 200 ppm (Diabrotica Balteata) | mortality at 200 ppm (Thrips tabaci)

CCN(C(=O)c1cc(-c2cnn(-c3c(C(F)(F)F)c(OS(=O)(=O)C(F)(F)C(F)(F)C(F)(F)C(F)(F)F)nn3C)c2)ccc1Cl)C1CC1 [Compound 13, [5-[4-[4-chloro-3-[cyclopropyl(ethyl)carbamoyl]phenyl]pyrazol-1-yl]-1-methyl-4-(trifluoromethyl)pyrazol-3-yl] 1,1,2,2,3,3,4,4,4-nonafluorobutane-1-sulfonate]
≥ 80%: percent control (mortality, anti-feedant effect or growth inhibition) at 200 ppm (Spodoptera littoralis) | mortality at 200 ppm (Plutella xylostella) | mortality at 200 ppm (Diabrotica Balteata) | mortality at 200 ppm (Thrips tabaci)

CN(C(=O)c1cc(-c2cnn(-c3c(C(F)(F)F)c(OS(=O)(=O)C(F)(F)C(F)(F)Cl)nn3C)c2)ccc1Cl)C1CC1 [Compound 11, [5-[4-[4-chloro-3-[cyclopropyl(methyl)carbamoyl]phenyl]pyrazol-1-yl]-1-methyl-4-(trifluoromethyl)pyrazol-3-yl] 2-chloro-1,1,2,2-tetrafluoro-ethanesulfonate]
≥ 80%: percent control (mortality, anti-feedant effect or growth inhibition) at 200 ppm (Spodoptera littoralis) | mortality at 200 ppm (Plutella xylostella; [1]) | mortality at 200 ppm (Diabrotica Balteata; [2]) | mortality at 200 ppm (Thrips tabaci; [3])

Cn1nc(OS(=O)(=O)C(F)(C(F)(F)F)C(F)(F)F)c(C(F)(F)F)c1-n1cc(-c2cnc(Cl)c(C(=O)NC3(C#N)CC3)c2)cn1 [Compound 24, [5-[4-[6-chloro-5-[(1-cyanocyclopropyl)carbamoyl]-3-pyridyl]pyrazol-1-yl]-1-methyl-4-(trifluoromethyl)pyrazol-3-yl] 1,1,1,2,3,3,3-heptafluoropropane-2-sulfonate]
≥ 80%: percent control (mortality, anti-feedant effect or growth inhibition) at 200 ppm (Spodoptera littoralis) | mortality at 200 ppm (Plutella xylostella; [1]) | mortality at 200 ppm (Diabrotica Balteata; [2]) | mortality at 200 ppm (Tetranychus urticae)

CN(C(=O)c1cc(-c2cnn(-c3c(C(F)(F)F)c(OS(=O)(=O)C(F)(F)C(F)(F)F)nn3C)c2)ccc1Cl)C1CC1 [Compound 16, [5-[4-[4-chloro-3-[cyclopropyl(methyl)carbamoyl]phenyl]pyrazol-1-yl]-1-methyl-4-(trifluoromethyl)pyrazol-3-yl] 1,1,2,2,2-pentafluoroethanesulfonate]
≥ 80%: percent control (mortality, anti-feedant effect or growth inhibition) at 200 ppm (Spodoptera littoralis) | mortality at 200 ppm (Plutella xylostella; [1]) | mortality at 200 ppm (Diabrotica Balteata; [2])

CN(C(=O)c1cc(-c2cnn(-c3c(C(F)(F)F)c(OS(=O)(=O)C(F)(F)C(F)(F)C(F)(F)C(F)(F)F)nn3C)c2)cnc1Cl)C1(C#N)CC1 [Compound 31, [5-[4-[6-chloro-5-[(1-cyanocyclopropyl)-methyl-carbamoyl]-3-pyridyl]pyrazol-1-yl]-1-methyl-4-(trifluoromethyl)pyrazol-3-yl] 1,1,2,2,3,3,4,4,4-nonafluorobutane-1-sulfonate]
≥ 80%: percent control (mortality, anti-feedant effect or growth inhibition) at 200 ppm (Spodoptera littoralis) | mortality at 200 ppm (Plutella xylostella) | mortality at 200 ppm (Diabrotica Balteata) | mortality at 200 ppm (Thrips tabaci)

CN(C(=O)c1cc(-c2cc(-c3c(C(F)(F)F)c(OS(=O)(=O)C(F)(F)C(F)(F)C(F)(F)C(F)(F)F)nn3C)no2)ccc1Cl)C1(C#N)CC1 [Compound 43, [5-[5-[4-chloro-3-[(1-cyanocyclopropyl)-methyl-carbamoyl]phenyl]isoxazol-3-yl]-1-methyl-4-(trifluoromethyl)pyrazol-3-yl] 1,1,2,2,3,3,4,4,4-nonafluorobutane-1-sulfonate]
≥ 80%: percent control (mortality, anti-feedant effect or growth inhibition) at 200 ppm (Spodoptera littoralis) | mortality at 200 ppm (Plutella xylostella) | mortality at 200 ppm (Diabrotica Balteata) | mortality at 200 ppm (Thrips tabaci)

CN(C(=O)c1cc(-c2cnn(-c3c(C(F)(F)F)c(OS(=O)(=O)C(F)(F)C(F)(F)C(F)(F)C(F)(F)F)nn3C)c2)ccc1Cl)C1CC1 [Compound 15, [5-[4-[4-chloro-3-[cyclopropyl(methyl)carbamoyl]phenyl]pyrazol-1-yl]-1-methyl-4-(trifluoromethyl)pyrazol-3-yl] 1,1,2,2,3,3,4,4,4-nonafluorobutane-1-sulfonate]
≥ 80%: percent control (mortality, anti-feedant effect or growth inhibition) at 200 ppm (Spodoptera littoralis) | mortality at 200 ppm (Plutella xylostella) | mortality at 200 ppm (Diabrotica Balteata)
